One experiment addresses T1, GGTase-I (Rattus norvegicus, UniProt P53610+Q04631).
T1 construct: purchased JENA BIOSCIENCE
The experiment in a line: In vitro GGTase-I enzyme assay (IC50, kinetics). The class given is biochemical. An outline of the steps:
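Rat GGTase-I (50 nM) with 0.5 μM [3H]-GGPP and 2 μM MBP-RhoA in Tris-HCl pH 7.5, MgCl2, ZnCl2, DTT, 2.5% DMSO, 10 min at 30 °C; radiolabel incorporation by TCA filter binding and scintillation. Kinetics: 5 min reactions varying GGPP or RhoA at fixed other components.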

For experiment [1], the system named is Rap1 geranylgeranylation in NIH3T3 cells. The experiment in a line: Unprenylated Rap1 immunoblot in NIH3T3 cells. The format is cell-based. The settings on record: 48 hours. As for the experimental part: The inhibition of GGTase-I catalyzed protein geranylgeranylation was assessed by examining the accumulation of unprenylated Rap1. To measure the level of unprenylated Rap1, cells were cultured in DMEM plus 10% (v/v) FBS overnight, and then DMSO or appropriate inhibitors were added. Incubation was continued for 48 hours. The cells were harvested and lysed in lysis buffer (20 mM Tris-HCl, pH 7.5, 150 mM NaCl, 1 mM EDTA, 1% NP-40 and 1× Protease Inhibitor Cocktail). Whole cell lysates of NIH3T3 cells were electrophoresed on a 12% SDS-PAGE, transferred to nitrocellulose membranes and immunoblotted with the antibody against unprenylated form of Rap1 (Santa Cruz Biotechnology catalog number sc-1482, goat), total-Rap1 (Santa Cruz: sc-65) or actin (Sigma: A4700). Actin was used as a loading control.

Another experiment concerns the target T2, RabGGTase (Rattus norvegicus, UniProt Q08602+Q08603).
T2 construct: purchased JENA BIOSCIENCE
T2 sequence (Q08602 1-567): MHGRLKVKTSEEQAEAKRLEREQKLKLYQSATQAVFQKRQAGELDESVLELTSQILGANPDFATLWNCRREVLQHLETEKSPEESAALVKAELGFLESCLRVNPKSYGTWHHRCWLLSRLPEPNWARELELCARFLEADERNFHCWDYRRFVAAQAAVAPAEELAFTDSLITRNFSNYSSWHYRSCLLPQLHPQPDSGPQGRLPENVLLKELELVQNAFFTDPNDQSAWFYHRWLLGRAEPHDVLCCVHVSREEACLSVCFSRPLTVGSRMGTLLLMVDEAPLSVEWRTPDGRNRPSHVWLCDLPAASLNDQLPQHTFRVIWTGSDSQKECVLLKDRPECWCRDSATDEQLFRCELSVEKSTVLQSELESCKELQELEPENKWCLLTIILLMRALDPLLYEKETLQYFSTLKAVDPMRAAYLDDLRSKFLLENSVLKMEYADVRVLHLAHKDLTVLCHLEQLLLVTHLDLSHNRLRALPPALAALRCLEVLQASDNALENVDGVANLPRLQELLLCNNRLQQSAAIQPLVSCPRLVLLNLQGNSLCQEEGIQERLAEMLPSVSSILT
T2 sequence (Q08603 1-331): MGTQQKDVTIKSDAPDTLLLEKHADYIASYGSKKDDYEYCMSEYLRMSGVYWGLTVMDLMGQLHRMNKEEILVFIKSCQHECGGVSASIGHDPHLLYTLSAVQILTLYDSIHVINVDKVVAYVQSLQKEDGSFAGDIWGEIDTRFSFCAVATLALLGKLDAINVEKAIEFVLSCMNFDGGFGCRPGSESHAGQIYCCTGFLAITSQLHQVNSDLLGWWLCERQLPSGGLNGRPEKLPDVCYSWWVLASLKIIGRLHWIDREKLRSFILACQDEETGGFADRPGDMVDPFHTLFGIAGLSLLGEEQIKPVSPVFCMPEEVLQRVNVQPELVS
The experiment in a line: In vitro RabGGTase (GGTase-II) assay with REP-1. The class given is biochemical. The settings on record: up to 10,000 nM. As for the experimental part:
The GGTase-I assay was carried out using RhoA as a substrate protein, GGTase-I (JENA Bioscience) and [3H]geranylgeranyl pyrophosphate. Incubation was for 30 min at 37° C. GGTase-II (or RabGGTase) assay was carried out using YPTI as a substrate protein, GGTase-II (Calbiochem, San Diego, Calif.) plus REP1 (Calbiochem) and [3H]geranylgeranyl pyrophosphate. Incubation was for 30 min at 37° C. FIGS. 20D-20F show the three dimensional structure of GGTase I (D), FTsse (E) and GGTase II (F) which can be obtained from X-ray diffraction studies of protein crystals.
For RabGGTase assays, the reaction contained the following components in 20 μl; 0.625 μl of [^3H]-GGPP (0.7 μM), 25 nM RabGGTase, 0.6 μM REP-1, 0.6 μM purified Rab7 or Ypt1 protein, 40 mM HEPES (pH 7.5), 150 mM NaCl, 5 mM DTT, 3 mM MgCl2 and 0.3% CHAPS. Reactions were carried out for 20 min at 37° C. and the products were analyzed as described above for the GGTase-I reaction. Graphing and Michaelis-Menten analysis were performed using Prism version5 (GraphPad, San Diego Calif.).

In another experiment the target is T3, FTase (Rattus norvegicus, UniProt Q02293+Q04631).
T3 construct: purchased JENA BIOSCIENCE
As to the kind of experiment: In vitro FTase assay (K-Ras4B substrate, [3H]FPP). The format is biochemical. The settings on record: concentration increased to 50,000 nM. The source says:
To further characterize the pilot library, inhibitors of protein farnesyltransferase were identified. This was accomplished by using K-Ras4B as a substrate protein, tritiated farnesylpyrophosphate ([^3H]FPP) and protein farnesyltransferase. See Finegold, A. A., Johnson, D. I., Farnsworth, C. C., Gelb, M. H., Judd, S. R., Glomset, J. A. and Tamanoi, F. (1991) Protein geranylgeranyltransferase of Saccharomyces cerevisiae is specific for Cys-Xaa-Xaa-Leu motif and requires the CDC43 gene product but not the DPR1 gene product. Proc. Natl. Acad. Sci. USA 88, 4448-4452. […] On the other hand, the structure of the compounds P1-F11, P2-B7 and P2-E9 resemble those of GGTIs. The FTI P1-F11 resembles the GGTI P1-F10, while the FTI P2-B7 resembles the GGTI P2-C10. The FTI P2-E9 is similar to the GGTI P2-G3. Similarity of some GGTI and FTI compounds may point to common structural features between the two closely related enzymes. As described before, FTase and GGTase I have similar three-dimensional structures and a shared alpha subunit. On the other hand, FTase specific inhibitors may recognize a region(s) that is different between the two enzymes.
Examples 2-8 illustrate assays of bioactivity. These methods are applicable to the compounds of the present invention having the particular linkers and scaffolds described herein, to determine their activity. […] Varying concentrations of the two compounds were added to each enzyme reaction. The FTase (protein farnesyltransferase) assay was carried out using K-Ras4B as a substrate protein, FTase (JENA Bioscience, San Diego, Calif.) and [3H]farnesyl pyrophosphate. Incubation was for 30 min at 37° C.
GGTase-I and FTase activities were determined by following the incorporation of radiolabeled isoprenoid [^3H]-geranylgeranyl or [^3H]-farnesyl into substrate proteins. FTase or GGTase-I (50 nM) were used to initiate reactions containing 0.4 μM of [^3H]-FPP or 0.5 μM of [^3H]-GGPP and 2 μM of MBP-tagged substrates (K-Ras4B for FTase; RhoA for GGTase-I) in 20 μl of buffer {50 mM Tris-HCl (pH 7.5), 10 mM MgCl2, […] and 5 mM DTT}. Inhibitors were added at the indicated concentrations. The final DMSO concentration was 2.5% for all samples.
Reactions were carried out for 10 min at 30° C. The reaction mixture was spotted onto a filter paper, treated with 10% trichloroacetic acid (TCA) followed by ethanol and acetone washing. The filter was counted using a scintillation counter. Kinetic assays in which the GGPP concentration was varied employed fixed concentrations of GGTase-I and RhoA, and reactions were carried out for 5 min. Similarly, fixed concentrations of GGTase-I and GGPP were used when the amount of RhoA was varied.

The subject of a further experiment is K562 cells. The experiment in a line: K562 cell growth inhibition. The format is cell-based, human. The settings on record: 72 hours. In a few lines: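 Human erythroleukemia K562 cells exposed to compound for 72 hours. Cell number measured with CCK-8 and viability expressed relative to the DMSO control.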
Experiment [2] relates to H-Ras farnesylation in NIH3T3 cells. The experiment in a line: H-Ras mobility shift immunoblot in NIH3T3 cells. The class given is cell-based. To be noted: 48 hours. How it is done:
K562 cells were treated with modified compounds for 72 hours and then cell number was counted. IC50 values of cell viability relative to the DMSO were measured. […] Data represent the mean+/−S.D. of two measurements from two independent experiments. *, P<0.05 compared with the value for DMSO. […] Whole cell lysates from cells treated with DMSO, P5-H6, P61-A6, GGTI (GGTI-298), FTI (BMS-225975) or RabGGTI (P49-F6) for 48 hours were prepared and processed for immunoblot analysis using antibody against unprenylated form of Rap1 (C: upper panel), Total-Rap1 (C: middle panel), H-Ras (D: upper panel), Rab5b (E: upper panel) or actin (C, D, and E: lower panel). The immunoblots shown represent two independent experiments for each treatment.
This was examined by using a farnesylated protein H-Ras.

SMILES strings stand for the structures. Entries after “also recorded” stand apart in the source; their conditions may differ.

`Cc1ccccc1S(=O)(=O)N1[C@@H](c2ccc(Cl)cc2)C(C(=O)O)=C[C@H]1C(C)(C)C` (relative stereo) [P5-H6]: the “specificity among GGTase-I, FTase and GGTase-II” value on GGTase-I (FIGS. 20A-20C, varying concentrations) is listed as “specifically inhibit GGTase I”. On GGTase-I (Michaelis-Menten analysis), the Ki (commonly the equilibrium dissociation constant of an inhibitor or competing ligand from its target) came to 408 ± 32 nM. The IC50 on GGTase-I (Tables 5, 14, read-out: In vitro (enzyme assay) IC50, GGTase I) came to 466 nM; with K562 cells (Homo sapiens, K562, FIG. 36A, read-out: IC50, inhibition of proliferation of K562 cells), 20000 nM. For the same compound, the “mode of GGTase-I inhibition with respect to GGPP” value on GGTase-I (varying GGPP, fixed RhoA) is listed as “do not compete with GGPP; also recorded: uncompetitive inhibitors”. Also, the “mode of GGTase-I inhibition with respect to the protein substrate (RhoA)” value on GGTase-I (varying RhoA, fixed GGPP) is given as “compete with a substrate protein; also recorded: competitive inhibitors”. Also, in experiment [1], the “appearance of the unprenylated (unprocessed) Rap1 band” value is “in a dose dependent manner; also recorded: inhibits Rap1 geranylgeranylation”. The “appearance of the unprenylated Rap1 band at 2.5 μM” value in experiment [1] (2.5 μM) is given as “not seen”. Moreover, the “inhibition of RabGGTase” value on RabGGTase was “little inhibition”. For the same compound, at FTase, the “inhibition of FTase activity” value is listed as “no significant inhibition”. Also, in the experiment on K562 cells (FIG. 23), the “inhibition of proliferation of K562 cells” value is reported as “inhibit the growth of the K562 cells”.

For `Cn1cncc1CN1C[C@@H](Cc2ccccc2)N(S(=O)(=O)c2cccs2)Cc2cc(C#N)ccc21` [BMS-225975], in experiment [2], the “mobility shift of H-Ras (protein farnesylation)” value is listed as “slowed the mobility”.

The values are drawn from US8815935B2, “Inhibitors of protein prenyltransferases” (The Regents of the University of California, priority 2008, dated 2014).
